Data set [1] in a line: Oral bioavailability in Sprague-Dawley rat at 10 mg/kg. The format is ADME, organism-based. To be noted: in vivo.
Data set [2] relates to Mus musculus. The experiment in a line: Antiobesity activity in diet-induced obesity C57Bl6/J mouse model assessed as improvement in glucose tolerance administered once daily via oral gavage for 2 weeks measured at post last dose by ipGTT. In kind it is functional.
Data set [3] can be described thus: Tmax in mouse at 10 mg/kg, po. In kind it is ADME, organism-based. To be noted: in vivo.
Data set [4] has as its system Mus musculus. Put plainly: In vivo antagonist activity at CB1R in C57Bl6/J mouse assessed as induction of anxiogenic behavior at 10 mg/kg administered once daily via oral gavage for 28 days by elevated plus maze test. In kind it is functional, organism-based.
A short description of data set [5]: Half life in Sprague-Dawley rat at 10 mg/kg, po. To be noted: in vivo. In kind it is ADME, organism-based.
The subject of data set [6] is Liver. The experiment in a line: Drug uptake in C57Bl6/J mouse liver at 10 mg/kg, po administered via gavage measured after 1 hr by LC-MS/MS analysis. In kind it is ADME, organism-based. To be noted: in vivo.
Data set [7] has as its system Mus musculus. The experiment in a line: Antiobesity activity in diet-induced obesity C57Bl6/J mouse model assessed as reduction in food intake administered once daily via oral gavage for 2 weeks. The format is functional.
Data set [8] has as its system Salmonella typhimurium. Put plainly: Mutagenicity in Salmonella typhimurium TA98 up to 125 ug/ml by Ames test. In kind it is toxicity. To be noted: salmonella enterica subsp. enterica serovar typhimurium. (In general: The Ames test detects mutagens through reverse mutation in bacteria.)
The nature of data set [9]: Tmax in Sprague-Dawley rat at 10 mg/kg, po. The format is ADME, organism-based. To be noted: in vivo.
For data set [10], the system named is Mus musculus. The experiment in a line: Antifibrotic activity in BDL-induced wild-type C57Bl6/J mouse liver damage model assessed as reduction in collagen deposition in liver at 10 mg/kg administered once daily via oral gavage by picrosirius staining based histological analysis. In kind it is functional, organism-based.
Data set [11] deals with Liver. Put plainly: Drug uptake in C57Bl6/J mouse liver at 10 mg/kg, po administered via gavage measured after 28 days by LC-MS/MS analysis. The format is ADME, organism-based. To be noted: in vivo, 672 h.
The subject of data set [12] is Brain. Put plainly: Drug level in C57Bl6/J mouse brain at 10 mg/kg, po administered via gavage measured after 1 hr by LC-MS/MS analysis. In kind it is ADME, organism-based. To be noted: in vivo.
In data set [13] the test system is Mus musculus. The experiment in a line: Antifibrotic activity in CCl4-induced C57Bl6/J mouse liver fibrosis model assessed as reduction in liver fibrosis at 10 mg/kg administered via oral gavage for 4 weeks by picrosirius red staining based histological analysis. The format is functional, organism-based.
Data set [14] relates to Mus musculus. Put plainly: Antifibrotic activity in BDL-induced CB1R deficient C57Bl6/J mouse liver damage model assessed as reduction in collagen deposition in liver at 10 mg/kg administered once daily via oral gavage by picrosirius staining based histological analysis. The format is functional, organism-based.
Data set [15] is described as follows: Half life in mouse at 10 mg/kg, po. In kind it is ADME, organism-based. To be noted: in vivo.
Data set [16] deals with Brain. Put plainly: Drug level in C57Bl6/J mouse brain at 10 mg/kg, po administered via gavage measured after 28 days by LC-MS/MS analysis. The format is ADME, organism-based. To be noted: in vivo, 672 h.
Data set [17] deals with Mus musculus. The experiment in a line: Antifibrotic activity in BDL-induced wild-type C57Bl6/J mouse liver damage model assessed as reduction in liver fibrosis at 10 mg/kg administered once daily via oral gavage starting on day 6 post-BDL induction by picrosirius red staining based histological analysis. In kind it is functional, organism-based.
For data set [18], the system named is Mus musculus. Put plainly: Antiobesity activity in diet-induced obesity C57Bl6/J mouse model assessed as reduction in body weight administered once daily via oral gavage for 2 weeks. In kind it is functional.
Data set [19] relates to Salmonella typhimurium. Put plainly: Mutagenicity in Salmonella typhimurium TA100 up to 125 ug/ml by Ames test. The format is toxicity. To be noted: salmonella enterica subsp. enterica serovar typhimurium.
Data set [20] deals with Mus musculus. Put plainly: Antifibrotic activity in CCl4-induced C57Bl6/J mouse liver fibrosis model assessed as reduction in iNOS level at 10 mg/kg administered via oral gavage for 4 weeks by immunostaining based method. The format is functional, organism-based.
Data set [21] relates to Mus musculus. Put plainly: Antiobesity activity in diet-induced obesity C57Bl6/J mouse model assessed as reduction in hepatic steatosis by measuring hepatic triglyceride level administered once daily via oral gavage for 2 weeks. The format is functional.
Data set [22] in a line: Ratio of drug level in brain to plasma in C57Bl6/J mouse at 10 mg/kg, po administered via gavage measured after 28 days by LC-MS/MS analysis. In kind it is ADME, organism-based. To be noted: brain and plasma, read-out: BPR.
In data set [23] the test system is Mus musculus. Put plainly: In vivo antagonist activity at CB1R in C57Bl6/J mouse assessed as reversal of ACEA-induced reduction in upper gastrointestinal motility administered via oral gavage administered 30 mins prior to ACEA addition. In kind it is functional, organism-based.
Data set [24] in a line: Ratio of drug level in brain to plasma in C57Bl6/J mouse at 10 mg/kg, po administered via gavage measured after 1 hr by LC-MS/MS analysis. The format is ADME, organism-based.
Data set [25] relates to Mus musculus. The experiment in a line: Antifibrotic activity in BDL-induced CB1R deficient C57Bl6/J mouse liver damage model assessed as reduction in collagen deposition in liver at 3 mg/kg administered once daily via oral gavage by picrosirius red staining based histological analysis. In kind it is functional, organism-based.
Data set [26] deals with Mus musculus. Put plainly: Antifibrotic activity in CCl4-induced C57Bl6/J mouse liver fibrosis model assessed as reduction in liver fibrosis at 3 mg/kg administered via oral gavage for 4 weeks by picrosirius red staining based histological analysis. In kind it is functional, organism-based.
Data set [27] has as its system Mus musculus. The experiment in a line: Antifibrotic activity in CCl4-induced C57Bl6/J mouse liver fibrosis model assessed as reduction in iNOS level at 3 mg/kg administered via oral gavage for 4 weeks by immunostaining based method. The format is functional, organism-based.
The subject of data set [28] is Mus musculus. The experiment in a line: Antifibrotic activity in BDL-induced wild-type C57Bl6/J mouse liver damage model assessed as reduction in liver fibrosis at 3 mg/kg administered once daily via oral gavage starting on day 6 post-BDL induction by picrosirius red staining based histological analysis. In kind it is functional, organism-based.
The test system of data set [29] is Mus musculus. The experiment in a line: Antifibrotic activity in BDL-induced wild-type C57Bl6/J mouse liver damage model assessed as reduction in collagen deposition in liver at 30 mg/kg administered once daily via oral gavage by picrosirius staining based histological analysis. The format is functional, organism-based.
Data set [30] deals with T1, Nitric oxide synthase, inducible (Mus musculus) (UniProt P29477).
T1 sequence (whole entry): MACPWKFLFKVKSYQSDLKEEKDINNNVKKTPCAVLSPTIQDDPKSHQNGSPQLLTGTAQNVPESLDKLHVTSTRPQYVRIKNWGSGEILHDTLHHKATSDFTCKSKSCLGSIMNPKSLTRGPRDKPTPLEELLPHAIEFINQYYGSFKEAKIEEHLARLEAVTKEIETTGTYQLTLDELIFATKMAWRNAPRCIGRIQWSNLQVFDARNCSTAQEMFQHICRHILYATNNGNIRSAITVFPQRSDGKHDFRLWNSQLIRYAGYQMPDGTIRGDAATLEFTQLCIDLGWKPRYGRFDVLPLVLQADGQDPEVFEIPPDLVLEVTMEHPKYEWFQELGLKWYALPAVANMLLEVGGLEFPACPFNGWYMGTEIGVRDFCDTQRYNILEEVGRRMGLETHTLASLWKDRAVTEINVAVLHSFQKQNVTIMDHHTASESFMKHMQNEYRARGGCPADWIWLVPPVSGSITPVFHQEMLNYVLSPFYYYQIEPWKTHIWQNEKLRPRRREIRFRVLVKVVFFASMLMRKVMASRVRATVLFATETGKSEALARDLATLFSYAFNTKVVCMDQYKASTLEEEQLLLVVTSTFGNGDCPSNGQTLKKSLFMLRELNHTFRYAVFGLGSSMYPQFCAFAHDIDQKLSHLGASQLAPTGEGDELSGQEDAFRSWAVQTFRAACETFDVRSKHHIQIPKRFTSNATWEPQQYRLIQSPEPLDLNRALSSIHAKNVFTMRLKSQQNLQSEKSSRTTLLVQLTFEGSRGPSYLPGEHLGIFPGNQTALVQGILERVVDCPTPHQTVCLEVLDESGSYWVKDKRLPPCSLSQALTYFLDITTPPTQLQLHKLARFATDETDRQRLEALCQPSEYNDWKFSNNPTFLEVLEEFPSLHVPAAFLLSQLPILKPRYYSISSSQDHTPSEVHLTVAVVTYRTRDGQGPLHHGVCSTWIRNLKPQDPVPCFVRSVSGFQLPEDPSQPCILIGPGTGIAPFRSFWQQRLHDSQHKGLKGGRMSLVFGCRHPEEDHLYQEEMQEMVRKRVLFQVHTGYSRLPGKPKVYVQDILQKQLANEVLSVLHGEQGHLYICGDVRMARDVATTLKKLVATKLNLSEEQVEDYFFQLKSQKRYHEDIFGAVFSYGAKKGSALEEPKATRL
The experiment in a line: Inhibition of iNOS in mouse RAW264.7 cells assessed as interferon gamma-induced NO production measured after 1 hr by fluorimetric assay. In kind it is cell-based.

Data set [31] has as its target T1, Nitric oxide synthase, inducible (Mus musculus). Put plainly: Inhibition of iNOS in mouse RAW264.7 cells assessed as LPS-induced NO production measured after 1 hr by fluorimetric assay. In kind it is cell-based.

Molecules are shown by their SMILES. Active and inactive are the calls of the source.

The term bioavailability denotes the share of a dose that reaches the circulation, judged against a reference dose that is usually intravenous. In general, Tmax refers to the time from dosing to the highest level. By half-life is commonly meant the time needed for the level to fall by half in the phase considered. Read a high half-life as slow decline. As for `C/C(N)=N\C(=N/S(=O)(=O)c1ccc(Cl)cc1)N1C[C@H](c2ccccc2)C(c2ccc(Cl)cc2)=N1`, the bioavailability in data set [1] amounted to 55%. For the same compound, the Activity result is “Dose-dependent effect” in the data set on Mus musculus [2]; “Dose-dependent effect” in the data set with Mus musculus [7]; “Non-Toxic” in the data set with Salmonella typhimurium [8]; “Dose-dependent effect” in the data set with Mus musculus [18]; “Non-Toxic” in the data set with Salmonella typhimurium [19]; “Dose-dependent effect” with Mus musculus [21]. The Activity result with Mus musculus [23] is “Dose-dependent effect”. In addition, the Tmax in data set [3] is 1 h; in data set [9], 0.75 h. Moreover, the outcome in the data set with Mus musculus [4] was inactive. Moreover, the half-life in data set [5] and in [15] was 2 h each time. Further, the Drug uptake entry is “Active” with Liver [6], “Active” in the data set on Liver [11], < 3% in the data set with Brain [12] and < 3% with Brain [16]. Besides, the outcome in the data set on Mus musculus [10], with Mus musculus [13], in the data set on Mus musculus [14], in the data set on Mus musculus [17] and with Mus musculus [20] was Active. In [22], the Kp at 672 h came out at 0.03. In addition, in [24], the BPR amounted to 2.7%.
Take `Cc1c(C(=O)NN2CCCCC2)nn(-c2ccc(Cl)cc2Cl)c1-c1ccc(Cl)cc1`: the outcome in the data set on Mus musculus [4], with Mus musculus [26] and with Mus musculus [29] was Active. The result with Mus musculus [25], with Mus musculus [27] and in the data set on Mus musculus [28] was inactive.
As to `C/C(N)=N\C(=N/S(=O)(=O)c1ccc(Cl)cc1)N1C[C@@H](c2ccccc2)C(c2ccc(Cl)cc2)=N1`, the inhibition result in data set [30] and in data set [31] was “Active” in each case. For the same compound, the outcome in the data set with Mus musculus [13] and with Mus musculus [20] was Active.

(Values after ChEMBL document CHEMBL3992534, “Design, Synthesis, and Biological Evaluation of Novel, Non-Brain-Penetrant, Hybrid Cannabinoid CB1R Inverse Agonist/Inducible Nitric Oxide Synthase (iNOS) Inhibitors for the Treatment of Liver Fibrosis” (J Med Chem, 2017).)
